Results taken from patent publication US20040063662A1, “Selenophene anti-tumor agents” (priority 1996, published 2004).

How the values were obtained:
[1] = test system: panel of sixty different human tumor cell lines; assay: NCI human tumor cell panel: whole panel (mean graph summary)
[2] = test system: IGROV1; assay: NCI human tumor cell panel: IGROV1 (Ovarian Cancer); assay type: cell-based
[3] = test system: SK-MEL-5; assay: NCI human tumor cell panel: SK-MEL-5 (Melanoma); assay type: cell-based
[4] = test system: SN12C; assay: NCI human tumor cell panel: SN12C (Renal Cancer); assay type: cell-based
[5] = test system: NCI-H23; assay: NCI human tumor cell panel: NCI-H23 (Non-Small Cell Lung Cancer); assay type: cell-based; conditions: NCI-H23, read-out: Log10 GI50 (converted)
[6] = test system: TK-10; assay: NCI human tumor cell panel: TK-10 (Renal Cancer); assay type: cell-based
[7] = test system: A498; assay: NCI human tumor cell panel: A498 (Renal Cancer); assay type: cell-based
[8] = test system: OVCAR-5; assay: NCI human tumor cell panel: OVCAR-5 (Ovarian Cancer); assay type: cell-based
[9] = test system: T-47D; assay: NCI human tumor cell panel: T-47D (Breast Cancer); assay type: cell-based; conditions: T47D
[10] = test system: NCI-H226; assay: NCI human tumor cell panel: NCI-H226 (Non-Small Cell Lung Cancer); assay type: cell-based; conditions: NCI-H226, read-out: Log10 GI50 (converted)
[11] = test system: MCF7/ADR-RES; assay: NCI human tumor cell panel: MCF7/ADR-RES (Breast Cancer); assay type: cell-based
[12] = test system: CCRF-CEM; assay: NCI human tumor cell panel: CCRF-CEM (Leukemia); assay type: cell-based
[13] = test system: BT-549; assay: NCI human tumor cell panel: BT-549 (Breast Cancer); assay type: cell-based
[14] = test system: SNB-19; assay: NCI human tumor cell panel: SNB-19 (CNS Cancer); assay type: cell-based; conditions: SNB-19, read-out: Log10 GI50 (converted)
[15] = test system: CAKI-1; assay: NCI human tumor cell panel: CAKI-1 (Renal Cancer); assay type: cell-based
[16] = test system: SK-MEL-2; assay: NCI human tumor cell panel: SK-MEL-2 (Melanoma); assay type: cell-based
[17] = test system: 786-0; assay: NCI human tumor cell panel: 786-0 (Renal Cancer); assay type: cell-based; conditions: 786-0, read-out: Log10 TGI (converted)
[18] = test system: A549/ATCC; assay: NCI human tumor cell panel: A549/ATCC (Non-Small Cell Lung Cancer); assay type: cell-based; conditions: read-out: Log10 TGI (converted)
[19] = test system: NCI-H522; assay: NCI human tumor cell panel: NCI-H522 (Non-Small Cell Lung Cancer)
[20] = test system: K-562; assay: NCI human tumor cell panel: K-562 (Leukemia); assay type: cell-based
[21] = test system: SK-MEL-28; assay: NCI human tumor cell panel: SK-MEL-28 (Melanoma); assay type: cell-based
[22] = test system: SK-OV-3; assay: NCI human tumor cell panel: SK-OV-3 (Ovarian Cancer); assay type: cell-based
[23] = test system: HS 578T; assay: NCI human tumor cell panel: HS 578T (Breast Cancer); assay type: cell-based
[24] = test system: PC-3; assay: NCI human tumor cell panel: PC-3 (Prostate Cancer); assay type: cell-based
[25] = test system: COLO 205; assay: NCI human tumor cell panel: COLO 205 (Colon Cancer); assay type: cell-based
[26] = test system: MDA-MB-231/ATCC; assay: NCI human tumor cell panel: MDA-MB-231/ATCC (Breast Cancer); assay type: cell-based; conditions: Homo sapiens, MDA-MB-231, MDA-MB-231/ATCC
[27] = read-out: Log10 GI50 (converted)
[28] = read-out: Log10 TGI (converted)

For `O=Cc1ccc(-c2ccc(-c3ccc(C=O)[se]3)s2)s1` [compound 688829], the GI50 ([1]; Homo sapiens, read-out: Log10 GI50, MG_MID, mean over the panel (converted)) was 5.37 µM, the CC50 ([1]; Homo sapiens, read-out: Log10 LC50, MG_MID, mean over the panel (converted)) was 87.1 µM and the “Log10 TGI, MG_MID” value ([1]; mean over the panel) was −4.35. The “Log10 TGI, Delta” value ([1]; whole panel) was 2.75, the “Log10 TGI, Range” value ([1]; whole panel) was 3.10 and the GI50 ([2]; IGROV-1, IGROV1, read-out: Log10 GI50 (converted)) was 0.178 µM. The IC (TGI) ([2]; IGROV-1, IGROV1, read-out: Log10 TGI (converted)) was 2.45 µM, the GI50 ([3]; SK-MEL-5, read-out: Log10 GI50 (converted)) was 23.4 µM and the IC (TGI) ([3]; SK-MEL-5, read-out: Log10 TGI (converted)) was > 100 µM. For the same molecule, the GI50 [4, 27] was 28.2 µM, the IC (TGI) [4, 28] was 85.1 µM and the GI50 [5] was > 100 µM. For the same molecule, the GI50 ([6]; TK-10, read-out: Log10 GI50 (converted)) was 0.0282 µM, the IC (TGI) ([6]; TK-10, read-out: Log10 TGI (converted)) was 0.209 µM and the GI50 ([7]; A498, read-out: Log10 GI50 (converted)) was 0.0214 µM. For the same molecule, the IC (TGI) ([7]; A498, read-out: Log10 TGI (converted)) was 0.0794 µM, the GI50 ([8]; OVCAR-5, read-out: Log10 GI50 (converted)) was 0.123 µM and the IC (TGI) ([8]; OVCAR-5, read-out: Log10 TGI (converted)) was 0.501 µM. The GI50 [9, 27] was 0.339 µM, the IC (TGI) [9, 28] was > 100 µM and the GI50 [10] was 0.891 µM. For the same molecule, the GI50 [11, 27] was 30.2 µM, the IC (TGI) [11, 28] was > 100 µM and the GI50 [12, 27] was 7.94 µM. For the same molecule, the IC (TGI) [12, 28] was > 100 µM, the GI50 ([13]; BT-549, read-out: Log10 GI50 (converted)) was 56.2 µM and the IC (TGI) ([13]; BT-549, read-out: Log10 TGI (converted)) was > 100 µM. For the same molecule, the GI50 [14] was > 100 µM, the GI50 ([15]; CAKI-1, read-out: Log10 GI50 (converted)) was 0.191 µM and the IC (TGI) ([15]; CAKI-1, read-out: Log10 TGI (converted)) was 0.501 µM. The GI50 ([16]; SK-MEL-2, read-out: Log10 GI50 (converted)) was 33.9 µM, the IC (TGI) ([16]; SK-MEL-2, read-out: Log10 TGI (converted)) was > 100 µM and the IC (TGI) [17] was 26.9 µM. For the same molecule, the IC (TGI) [18] was > 100 µM, the GI50 ([19]; NCI-H522, read-out: Log10 GI50 (converted)) was 11.2 µM and the IC (TGI) ([19]; NCI-H522, read-out: Log10 TGI) was 39.8 µM. The GI50 ([20]; K562, K-562, read-out: Log10 GI50 (converted)) was 0.251 µM, the IC (TGI) ([20]; K562, K-562, read-out: Log10 TGI (converted)) was > 100 µM and the GI50 ([21]; SK-MEL-28, read-out: Log10 GI50 (converted)) was 66.1 µM. The IC (TGI) ([21]; SK-MEL-28, read-out: Log10 TGI (converted)) was > 100 µM, the GI50 ([22]; SK-OV-3, read-out: Log10 GI50 (converted)) was 26.3 µM and the IC (TGI) ([22]; SK-OV-3, read-out: Log10 TGI (converted)) was > 100 µM. The GI50 [23, 27] was 2.88 µM, the IC (TGI) [23, 28] was > 100 µM and the GI50 ([24]; PC-3, read-out: Log10 GI50 (converted)) was 28.2 µM. For the same molecule, the IC (TGI) ([24]; PC-3, read-out: Log10 TGI (converted)) was > 100 µM, the GI50 ([25]; COLO 205, read-out: Log10 GI50 (converted)) was 12 µM and the IC (TGI) ([25]; COLO 205, read-out: Log10 TGI (converted)) was 33.1 µM. The GI50 [26, 27] was 23.4 µM and the IC (TGI) [26, 28] was 67.6 µM.
